Laboratory results from ChEMBL document CHEMBL1201862, “PubChem BioAssay data set” (2004).
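Grown in 96-well plates, cells were treated for 48 hours with each compound at five concentrations. Insufficient inhibition: endpoint recorded as highest concentration tested. Abbreviation: GI50, concentration required for 50% inhibition of growth.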 Activity calls are given as the source filed them. Rule as the data show it: active = GI50 up to about 1.1 µM and inactive = higher.

Experiments:
Assay in all cases: NCI tumour cell line growth inhibition, 48 h
K562 = tested on: K562
NCI-H522 = tested on: NCI-H522
MDA-N = tested on: MDA-N
NCI/ADR-RES = tested on: NCI/ADR-RES
PC-3 = tested on: PC-3
SF-539 = tested on: SF-539
Hs-578T = tested on: Hs-578T
HOP-92 = tested on: HOP-92
UACC-257 = tested on: UACC-257
BT-549 = tested on: BT-549
Malme-3M = tested on: Malme-3M
SK-OV-3 = tested on: SK-OV-3
HOP-62 = tested on: HOP-62
U-251 = tested on: U-251
SNB-19 = tested on: SNB-19
OVCAR-3 = tested on: OVCAR-3
LOX IMVI = tested on: LOX IMVI
OVCAR-8 = tested on: OVCAR-8
RPMI-8226 = tested on: RPMI-8226

Measured: GI50

C=C(Cl)/C(=C\Br)CCC(Cl)C(C)C.C=C(Cl)/C(=C\Cl)CCC(Cl)C(C)C (stereo unspecified)
inactive: K562 4.03 µM | NCI-H522 4.73 µM | MDA-N 15 µM | NCI/ADR-RES 27.5 µM | PC-3 19.8 µM | SF-539 18.2 µM | Hs-578T 11.9 µM | HOP-92 15 µM | UACC-257 13.6 µM | BT-549 15.2 µM | Malme-3M 15.1 µM | SK-OV-3 22.8 µM | HOP-62 18.3 µM | U-251 16.4 µM | SNB-19 17.6 µM | OVCAR-3 16.5 µM | LOX IMVI 1.67 µM

C/C(=C\[Si](C)(C)c1ccco1)C(C)(O)[C@H](C)O (stereo partly specified)
inactive: OVCAR-8 55.1 µM | K562 32.3 µM | NCI-H522 30.3 µM | MDA-N 54.6 µM | NCI/ADR-RES 43.7 µM | PC-3 38.9 µM | SF-539 > 100 µM | Hs-578T 55.3 µM | HOP-92 46.1 µM | UACC-257 24.6 µM | Malme-3M 52.8 µM | SK-OV-3 > 100 µM | HOP-62 > 100 µM | U-251 > 100 µM | SNB-19 > 100 µM | RPMI-8226 30.8 µM | OVCAR-3 54.5 µM | LOX IMVI > 100 µM

O=C(N/C(=C/c1ccc(Cl)cc1)c1nc2ccccc2c(=O)n1Nc1ccc([N+](=O)[O-])cc1[N+](=O)[O-])c1ccccc1
inactive: OVCAR-8 > 100 µM | K562 > 100 µM | NCI-H522 > 100 µM | MDA-N > 100 µM | NCI/ADR-RES > 100 µM | PC-3 > 100 µM | SF-539 > 100 µM | Hs-578T > 100 µM | HOP-92 > 100 µM | UACC-257 > 100 µM | BT-549 > 100 µM | Malme-3M > 100 µM | SK-OV-3 > 100 µM | HOP-62 > 100 µM | U-251 > 100 µM | SNB-19 > 100 µM | OVCAR-3 > 100 µM | LOX IMVI > 100 µM

CC(=O)C(C(C)=O)[C@H]1OC(C)(C)O[C@H]1[C@H]1COC(C)(C)O1
inactive: OVCAR-8 34.7 µM | K562 34.4 µM | NCI-H522 33.8 µM | MDA-N 55.3 µM | NCI/ADR-RES 28.6 µM | PC-3 24.5 µM | SF-539 18.7 µM | Hs-578T 44.8 µM | HOP-92 80 µM | UACC-257 49.4 µM | BT-549 28.4 µM | Malme-3M > 100 µM | SK-OV-3 29.2 µM | HOP-62 23.4 µM | U-251 24.9 µM | SNB-19 41.6 µM | OVCAR-3 28.6 µM | LOX IMVI 32.7 µM

COc1ccc(N(c2ccc(C#N)cc2)c2ccc(C#N)cc2)cc1
inactive: OVCAR-8 > 100 µM | NCI-H522 3.78 µM | MDA-N > 100 µM | PC-3 > 100 µM | SF-539 > 100 µM | Hs-578T > 100 µM | HOP-92 > 100 µM | UACC-257 > 100 µM | BT-549 > 100 µM | SK-OV-3 > 100 µM | HOP-62 > 100 µM | U-251 > 100 µM | SNB-19 > 100 µM | OVCAR-3 82.4 µM | LOX IMVI 69.8 µM

CC(C)(C)c1ccc(C(C)(C)C)c(N2C(=O)C3ON=C(c4ccc([N+](=O)[O-])cc4)C3C2=O)c1 (stereo unspecified)
inactive: OVCAR-8 10.4 µM | K562 11 µM | NCI-H522 18.4 µM | MDA-N 7.38 µM | NCI/ADR-RES 17.3 µM | SF-539 > 25 µM | Hs-578T 6.98 µM | HOP-92 9.46 µM | UACC-257 > 25 µM | BT-549 > 25 µM | Malme-3M > 25 µM | SK-OV-3 > 25 µM | HOP-62 23.4 µM | SNB-19 > 25 µM | RPMI-8226 10 µM | OVCAR-3 10.5 µM | LOX IMVI 9.04 µM

O=C(CCCN1CCC(O)(c2ccc(Cl)cc2)CC1)c1ccc(F)cc1 [HALOPERIDOL]
inactive: OVCAR-8 32.7 µM | K562 > 100 µM | NCI-H522 20.6 µM | NCI/ADR-RES 30.1 µM | PC-3 70 µM | SF-539 26.1 µM | Hs-578T 25.4 µM | HOP-92 48.2 µM | UACC-257 20.9 µM | BT-549 31 µM | Malme-3M 19.6 µM | SK-OV-3 34.9 µM | HOP-62 36.1 µM | U-251 20.7 µM | SNB-19 > 100 µM | RPMI-8226 25.1 µM | OVCAR-3 18.3 µM | LOX IMVI 18 µM
